Consider 6 molecules from patent publication US11713344B2 (DONG-A ST CO., LTD., priority 2017, dated 2023).

One experiment concerns the target Human glucagon receptors (Homo sapiens, UniProt P47871). Put plainly: Glucagon receptor activation assay (CRE-luciferase reporter, CHO-K1). A general note: In a reporter assay the amount or activity of a reporter protein is the signal.
Another experiment deals with Human GLP-1 receptors (Homo sapiens, UniProt P43220). In words: GLP-1 receptor activation assay (CRE-luciferase reporter, CHO-K1).

Some results are limits rather than exact numbers.

Chain of Human GLP-1 receptors (P43220 24-463): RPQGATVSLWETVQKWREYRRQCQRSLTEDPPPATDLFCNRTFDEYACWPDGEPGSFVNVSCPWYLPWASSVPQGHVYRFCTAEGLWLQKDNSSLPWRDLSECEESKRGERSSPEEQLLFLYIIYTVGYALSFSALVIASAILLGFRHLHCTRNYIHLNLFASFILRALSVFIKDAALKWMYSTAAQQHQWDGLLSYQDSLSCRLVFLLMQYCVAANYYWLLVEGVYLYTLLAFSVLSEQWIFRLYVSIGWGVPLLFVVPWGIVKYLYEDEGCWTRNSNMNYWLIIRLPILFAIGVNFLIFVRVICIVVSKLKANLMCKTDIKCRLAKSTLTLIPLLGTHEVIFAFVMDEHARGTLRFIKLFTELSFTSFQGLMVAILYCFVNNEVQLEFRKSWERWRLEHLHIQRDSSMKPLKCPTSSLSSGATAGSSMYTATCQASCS
Chain of Human glucagon receptors (P47871 26-477): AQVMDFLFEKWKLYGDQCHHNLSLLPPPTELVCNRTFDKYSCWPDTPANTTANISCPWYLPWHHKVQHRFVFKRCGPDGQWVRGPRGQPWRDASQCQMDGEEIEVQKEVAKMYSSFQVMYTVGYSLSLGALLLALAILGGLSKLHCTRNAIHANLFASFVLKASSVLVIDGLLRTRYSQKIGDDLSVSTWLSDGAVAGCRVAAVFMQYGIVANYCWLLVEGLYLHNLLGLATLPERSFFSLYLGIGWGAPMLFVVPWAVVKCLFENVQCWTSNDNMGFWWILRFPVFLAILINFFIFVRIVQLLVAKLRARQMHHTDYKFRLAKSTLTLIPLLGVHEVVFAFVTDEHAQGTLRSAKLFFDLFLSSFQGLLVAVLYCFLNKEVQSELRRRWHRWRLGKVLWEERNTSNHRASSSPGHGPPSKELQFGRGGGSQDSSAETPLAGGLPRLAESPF

Usually EC50 stands for the concentration giving half of the maximal effect. Consider `CCCCCCCCCCCCCCCCCC(=O)N[C@@H](CCC(=O)NCCOCCOCC(=O)NCCOCCOCC(=O)NCCCC[C@H](NC(=O)[C@H](CC(=O)O)NC(=O)[C@H](CO)NC(=O)[C@@H](NC(=O)[C@H](Cc1ccccc1)NC(=O)[C@@H](NC(=O)CNC(=O)[C@H](CCC(N)=O)NC(=O)C(C)(C)NC(=O)[C@@H](N)Cc1c[nH]cn1)[C@@H](C)O)[C@@H](C)O)C(=O)N[C@@H](CO)C(=O)N[C@@H](CCCCN)C(=O)N[C@@H](Cc1ccc(O)cc1)C(=O)N[C@@H](CC(C)C)C(=O)N[C@@H](CC(=O)O)C(=O)N[C@H]1CCCCNC(=O)C2CCN(CC2)C(=O)CC[C@@H](C(=O)N[C@@H](CC(=O)O)C(=O)N[C@@H](Cc2ccccc2)C(=O)N[C@H](C(=O)N[C@@H](CCC(N)=O)C(=O)N[C@@H](Cc2c[nH]c3ccccc23)C(=O)N[C@@H](CC(C)C)C(=O)N[C@@H](CCSC)C(=O)N[C@@H](CC(N)=O)C(=O)N[C@H](C(=O)N[C@@H](CCCCN)C(=O)O)[C@@H](C)O)C(C)C)NC(=O)[C@H](C)NC(=O)[C@H](CCCNC(=N)N)NC(=O)[C@H](CCCNC(=N)N)NC1=O)C(=O)O` [Compound 32, H-HA1 bQGTFTSDZSKYLDKRRAEDFVQWLMNTK-OH], for which the EC50 on Human glucagon receptors and at Human GLP-1 receptors was less than 0.01 nM throughout.

On to `CCCCCCCCCCCCCCCCCC(=O)N[C@@H](CCC(=O)NCCOCCOCC(=O)NCCOCCOCC(=O)NCCCC[C@H](NC(=O)[C@H](CC(=O)O)NC(=O)[C@H](CO)NC(=O)[C@@H](NC(=O)[C@H](Cc1ccccc1)NC(=O)[C@@H](NC(=O)CNC(=O)[C@H](CCC(N)=O)NC(=O)C(C)(C)NC(=O)[C@@H](N)Cc1c[nH]cn1)[C@@H](C)O)[C@@H](C)O)C(=O)N[C@@H](CO)C(=O)N[C@@H](CCCCN)C(=O)N[C@@H](Cc1ccc(O)cc1)C(=O)N[C@@H](CC(C)C)C(=O)N[C@@H](CC(=O)O)C(=O)N[C@H]1CCC(=O)NC2CCC(CC2)C(=O)NCCCC[C@@H](C(=O)N[C@@H](CC(=O)O)C(=O)N[C@@H](Cc2ccccc2)C(=O)N[C@H](C(=O)N[C@@H](CCC(N)=O)C(=O)N[C@@H](Cc2c[nH]c3ccccc23)C(=O)N[C@@H](CC(C)C)C(=O)N[C@@H](CCSC)C(=O)N[C@@H](CC(N)=O)C(=O)N[C@H](C(=O)N[C@@H](CCCCN)C(=O)O)[C@@H](C)O)C(C)C)NC(=O)[C@H](C)NC(=O)[C@H](CCCNC(=N)N)NC(=O)[C@H](CCCNC(=N)N)NC1=O)C(=O)O` [Compound 33, H-HAibQGTFTSDZSKYLDERRAKDFVQWLMNTK-OH], for which the EC50 on Human glucagon receptors and on Human GLP-1 receptors was less than 0.01 nM throughout.

For the molecule `CCCCCCCCCCCCCCCCCC(=O)N[C@@H](CCC(=O)NCCOCCOCC(=O)NCCOCCOCC(=O)NCCCC[C@H](NC(=O)[C@H](CC(=O)O)NC(=O)[C@H](CO)NC(=O)[C@@H](NC(=O)[C@H](Cc1ccccc1)NC(=O)[C@@H](NC(=O)CNC(=O)[C@H](CCC(N)=O)NC(=O)C(C)(C)NC(=O)[C@@H](N)Cc1c[nH]cn1)[C@@H](C)O)[C@@H](C)O)C(=O)N[C@@H](CO)C(=O)N[C@@H](CCCCN)C(=O)N[C@@H](Cc1ccc(O)cc1)C(=O)N[C@@H](CC(C)C)C(=O)N[C@@H](CC(=O)O)C(=O)N[C@H]1CCC(=O)NCC(=O)NCCCC[C@@H](C(=O)N[C@@H](CC(=O)O)C(=O)N[C@@H](Cc2ccccc2)C(=O)N[C@H](C(=O)N[C@@H](CCC(N)=O)C(=O)N[C@@H](Cc2c[nH]c3ccccc23)C(=O)N[C@@H](CC(C)C)C(=O)N[C@@H](CCSC)C(=O)N[C@@H](CC(N)=O)C(=O)N[C@H](C(=O)N[C@@H](CCCCN)C(=O)O)[C@@H](C)O)C(C)C)NC(=O)[C@H](C)NC(=O)[C@H](CCCNC(=N)N)NC(=O)[C@H](CCCNC(=N)N)NC1=O)C(=O)O` [Compound 35, H-HAibQGTFTSDZSKYLDERRAKDFVQWLMNTK-OH], the EC50 at Human glucagon receptors and on Human GLP-1 receptors was less than 0.01 nM each time.

On to `CCCCCCCCCCCCCCCCCC(=O)N[C@@H](CCC(=O)NCCOCCOCC(=O)NCCOCCOCC(=O)NCCCC[C@H](NC(=O)[C@H](CC(=O)O)NC(=O)[C@H](CO)NC(=O)[C@@H](NC(=O)[C@H](Cc1ccccc1)NC(=O)[C@@H](NC(=O)CNC(=O)[C@H](CCC(N)=O)NC(=O)C(C)(C)NC(=O)[C@@H](N)Cc1c[nH]cn1)[C@@H](C)O)[C@@H](C)O)C(=O)N[C@@H](CO)C(=O)N[C@@H](CCCCN)C(=O)N[C@@H](Cc1ccc(O)cc1)C(=O)N[C@@H](CC(C)C)C(=O)N[C@@H](CC(=O)O)C(=O)N[C@H]1CC(=O)NCC(=O)NCCCC[C@@H](C(=O)N[C@@H](CC(=O)O)C(=O)N[C@@H](Cc2ccccc2)C(=O)N[C@H](C(=O)N[C@@H](CCC(N)=O)C(=O)N[C@@H](Cc2c[nH]c3ccccc23)C(=O)N[C@@H](CC(C)C)C(=O)N[C@@H](CCSC)C(=O)N[C@@H](CC(N)=O)C(=O)N[C@H](C(=O)N[C@@H](CCCCN)C(=O)O)[C@@H](C)O)C(C)C)NC(=O)[C@H](C)NC(=O)[C@H](CCCNC(=N)N)NC(=O)[C@H](CCCNC(=N)N)NC1=O)C(=O)O` [Compound 37, H-HAibQGTFTSDZSKYLDDRRAKDFVQWLMNTK-OH], for which the concentration for a half-maximal effect (EC50) at Human glucagon receptors and at Human GLP-1 receptors was less than 0.01 nM in each case.

Turning to `CCCCCCCCCCCCCCCCCC(=O)N[C@@H](CCC(=O)NCCOCCOCC(=O)NCCOCCOCC(=O)NCCCC[C@H](NC(=O)[C@H](CC(=O)O)NC(=O)[C@H](CO)NC(=O)[C@@H](NC(=O)[C@H](Cc1ccccc1)NC(=O)[C@@H](NC(=O)CNC(=O)[C@H](CCC(N)=O)NC(=O)C(C)(C)NC(=O)[C@@H](N)Cc1c[nH]cn1)[C@@H](C)O)[C@@H](C)O)C(=O)N[C@@H](CO)C(=O)N[C@@H](CCCCN)C(=O)N[C@@H](Cc1ccc(O)cc1)C(=O)N[C@@H](CC(C)C)C(=O)N[C@@H](CC(=O)O)C(=O)N[C@H]1CC(=O)N[C@@H](CC(C)C)C(=O)NCCCC[C@@H](C(=O)N[C@@H](CC(=O)O)C(=O)N[C@@H](Cc2ccccc2)C(=O)N[C@H](C(=O)N[C@@H](CCC(N)=O)C(=O)N[C@@H](Cc2c[nH]c3ccccc23)C(=O)N[C@@H](CC(C)C)C(=O)N[C@@H](CCSC)C(=O)N[C@@H](CC(N)=O)C(=O)N[C@H](C(=O)N[C@@H](CCCCN)C(=O)O)[C@@H](C)O)C(C)C)NC(=O)[C@H](C)NC(=O)[C@H](CCCNC(=N)N)NC(=O)[C@H](CCCNC(=N)N)NC1=O)C(=O)O` [Compound 38, H-HAibQGTFTSDZSKYLDDRRAKDFVQWLMNTK-OH], the concentration for a half-maximal effect (EC50) at Human glucagon receptors and at Human GLP-1 receptors was less than 0.01 nM throughout.

Consider `CSCC[C@H](NC(=O)[C@H](CC(C)C)NC(=O)[C@H](Cc1c[nH]c2ccccc12)NC(=O)[C@H](CCC(N)=O)NC(=O)[C@@H](NC(=O)[C@H](Cc1ccccc1)NC(=O)[C@H](CC(=O)O)NC(=O)[C@H](CCC(N)=O)NC(=O)[C@H](C)NC(=O)[C@H](CCCNC(=N)N)NC(=O)[C@H](CCCNC(=N)N)NC(=O)C(C)(C)NC(=O)[C@H](CC(=O)O)NC(=O)[C@H](CC(C)C)NC(=O)[C@H](Cc1ccc(O)cc1)NC(=O)[C@H](CCCCN)NC(=O)[C@H](CO)NC(=O)[C@H](CCCCN)NC(=O)[C@H](CC(=O)O)NC(=O)[C@H](CO)NC(=O)[C@@H](NC(=O)[C@H](Cc1ccccc1)NC(=O)[C@@H](NC(=O)CNC(=O)[C@H](CCC(N)=O)NC(=O)C(C)(C)NC(=O)[C@@H](N)Cc1c[nH]cn1)[C@@H](C)O)[C@@H](C)O)C(C)C)C(=O)N[C@@H](CC(N)=O)C(=O)N[C@H](C(=O)N[C@@H](CCCCN)C(=O)O)[C@@H](C)O` [Compound 39], for which the EC50 at Human glucagon receptors and on Human GLP-1 receptors was more than 1 nM in each case.
